Source: US7214686B2, “Pharmaceutical compositions and methods for effecting dopamine release” (priority 1997, dated 2007)
Read-outs that look alike come from different tables or passages of the source.

Assays:
[1] = biological target: T1, rat ganglionic nAChR subtype (PC12 cells) (Rattus norvegicus, UniProt P04757+P12392); assay: cell-based; assay type: cell-based
T1 construct: These cells express ganglion-like nAChRs; endogenous in cells; host or cells: PC12 (rat pheochromocytoma)
Experimental: Activation of rat ganglion nAChRs was established on the pheochromocytoma clonal line PC12, which is a continuous clonal cell line of neural crest origin, derived from a tumor of the rat adrenal medulla.
(§1) Cells were cultured in Dulbecco's modified Eagle's medium (Gibco/BRL) with 10% horse serum (Gibco/BRL), 5% fetal bovine serum (HyClone, Logan Utah), 1 mM sodium pyruvate, 4 mM L-Glutamine, and 50,000 units penicillin-streptomycin (Irvine Scientific). When cells were 80% confluent, they were plated to 6 well Nunc plates (Nunclon) and coated with 0.03% poly-L-lysine (Sigma, dissolved in 100 mM boric acid). Experiments were conducted when the cells reached 80% confluency.
(§2) On the day of the experiment, growth media was gently removed from the well and growth media containing ^86Rubidium chloride (10^6 μCi/mL) was added to each well. Cells were incubated at 37° C. for a minimum of 3 h. […] Next, cells were exposed to either 100 μM of test compound, 100 μM of nicotine or buffer alone for 4 min. Following the exposure period, the supernatant containing the released ^86Rb^+ was removed and transferred to scintillation vials. Scintillation fluid was added and released radioactivity was measured by liquid scintillation counting.
Within each assay, each point had 2 replicates, which were averaged. The amount of ^86Rb^+ release was compared to both a positive control (100 μM nicotine) and a negative control (buffer alone) to determine the percent release relative to that of L-nicotine.
(§3) When appropriate, dose-response curves of test compound were determined. The maximal activation for individual compounds (Emax) was determined as a percentage of the maximal activation induced by L-nicotine. The compound concentration resulting in half maximal activation (EC50) of specific ion flux was also determined.

[2] = biological target: T2, human muscle nAChR subtype (TE671/RD cells) (Homo sapiens, UniProt P02708+P07510+Q07001); assay: cell-based; assay type: cell-based; conditions: for Muscle Effect Ecmax: maximal activation as a percentage of that induced by L-nicotine
T2 construct: These cells express receptors that have pharmacological; endogenous in cells; host or cells: TE671/RD (human embryonal rhabdomyosarcoma)
Experimental: as §1, with “well polystyrene” for “well Nunc”, “plates (Costar).” for “plates (Nunclon) and coated with 0.03% poly-L-lysine (Sigma, dissolved in 100 mM boric acid).”, “reached 100%” for “reached 80%”
as §2, with “L-nicotine (Acros Organics)” for “nicotine”
Within each assay, each point had 2 replicates, which were averaged. The amount of ^86Rb^+ release was compared to both a positive control (100 μM L-nicotine) and a negative control (buffer alone) to determine the percent release relative to that of L-nicotine.
as §3

[3] = system: striatal synaptosomes (dopamine release); assay: cells; assay type: cell-based, rat; conditions: for EC50: read-out: Dopamine Release EC50
[4] = physchem
[5] = biological target: T3, α4β2 nAChR subtype (Rattus norvegicus, UniProt P09483+P12390); assay: biochemical; conditions: inhibition of [3H]nicotine binding, rat cerebral cortex membranes
T3 construct: The cerebral cortex was removed and placed in 20 volumes (weight:volume) of ice-old preparative buffer; from tissue; host or cells: rat cerebral cortex membranes

[6] = 86Rb+ efflux, read-out: Ganglion Effect EC50
[7] = maximal activation as a percentage of that induced by L-nicotine
[8] = rat striatal synaptosomes, [3H]dopamine release

T1 sequence (P04757 26-499): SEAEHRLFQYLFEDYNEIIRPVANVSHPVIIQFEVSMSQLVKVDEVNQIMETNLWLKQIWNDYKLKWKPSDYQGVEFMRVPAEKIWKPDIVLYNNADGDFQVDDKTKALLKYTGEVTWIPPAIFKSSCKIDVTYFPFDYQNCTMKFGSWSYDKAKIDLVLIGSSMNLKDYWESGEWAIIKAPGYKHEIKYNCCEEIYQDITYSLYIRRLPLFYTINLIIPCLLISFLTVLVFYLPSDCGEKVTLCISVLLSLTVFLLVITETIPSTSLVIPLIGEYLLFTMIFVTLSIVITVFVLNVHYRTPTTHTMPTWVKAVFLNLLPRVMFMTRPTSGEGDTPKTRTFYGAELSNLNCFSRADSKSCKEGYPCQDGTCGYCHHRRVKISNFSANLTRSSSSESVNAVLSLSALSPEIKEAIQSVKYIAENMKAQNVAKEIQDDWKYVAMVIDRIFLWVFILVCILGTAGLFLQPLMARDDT
T1 sequence (P12392 21-495): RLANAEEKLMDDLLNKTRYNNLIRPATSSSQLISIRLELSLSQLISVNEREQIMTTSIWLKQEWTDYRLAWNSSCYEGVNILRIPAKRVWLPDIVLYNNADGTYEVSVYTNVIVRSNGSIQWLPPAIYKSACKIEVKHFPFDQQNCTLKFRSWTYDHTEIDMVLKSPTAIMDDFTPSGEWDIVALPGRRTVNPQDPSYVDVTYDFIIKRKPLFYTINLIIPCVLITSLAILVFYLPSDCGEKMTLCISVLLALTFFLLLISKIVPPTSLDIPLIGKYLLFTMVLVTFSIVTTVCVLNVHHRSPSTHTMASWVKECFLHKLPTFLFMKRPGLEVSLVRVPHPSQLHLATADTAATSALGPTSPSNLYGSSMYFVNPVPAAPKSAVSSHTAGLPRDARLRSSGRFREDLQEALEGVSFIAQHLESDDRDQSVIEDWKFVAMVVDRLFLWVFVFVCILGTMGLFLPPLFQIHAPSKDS
T2 sequence (P02708 21-457): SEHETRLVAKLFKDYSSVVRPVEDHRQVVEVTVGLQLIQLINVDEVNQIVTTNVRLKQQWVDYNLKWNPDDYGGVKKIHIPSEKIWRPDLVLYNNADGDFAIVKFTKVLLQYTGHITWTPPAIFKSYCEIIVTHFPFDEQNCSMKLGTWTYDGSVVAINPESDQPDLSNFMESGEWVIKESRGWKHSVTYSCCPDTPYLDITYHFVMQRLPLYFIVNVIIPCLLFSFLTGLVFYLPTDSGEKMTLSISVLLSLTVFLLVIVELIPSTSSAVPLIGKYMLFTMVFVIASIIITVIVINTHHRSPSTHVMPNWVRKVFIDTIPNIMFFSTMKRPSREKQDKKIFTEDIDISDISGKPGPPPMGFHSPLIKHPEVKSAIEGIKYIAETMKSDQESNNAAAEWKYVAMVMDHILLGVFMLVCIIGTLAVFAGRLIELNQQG
T2 sequence (P11230 24-501 partner): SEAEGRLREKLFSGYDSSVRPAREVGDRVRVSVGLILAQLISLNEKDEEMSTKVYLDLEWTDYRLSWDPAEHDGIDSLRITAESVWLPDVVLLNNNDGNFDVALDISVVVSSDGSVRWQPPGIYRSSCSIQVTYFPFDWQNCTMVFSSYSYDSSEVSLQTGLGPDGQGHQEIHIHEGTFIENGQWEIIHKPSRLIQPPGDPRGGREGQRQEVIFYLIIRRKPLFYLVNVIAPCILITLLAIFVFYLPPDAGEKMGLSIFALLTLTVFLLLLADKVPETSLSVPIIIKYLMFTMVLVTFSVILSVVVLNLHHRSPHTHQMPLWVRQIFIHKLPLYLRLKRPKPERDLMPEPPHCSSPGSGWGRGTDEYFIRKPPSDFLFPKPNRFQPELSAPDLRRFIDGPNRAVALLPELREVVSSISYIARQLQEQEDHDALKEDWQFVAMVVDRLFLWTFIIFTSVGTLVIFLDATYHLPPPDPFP
T2 sequence (Q07001 22-517): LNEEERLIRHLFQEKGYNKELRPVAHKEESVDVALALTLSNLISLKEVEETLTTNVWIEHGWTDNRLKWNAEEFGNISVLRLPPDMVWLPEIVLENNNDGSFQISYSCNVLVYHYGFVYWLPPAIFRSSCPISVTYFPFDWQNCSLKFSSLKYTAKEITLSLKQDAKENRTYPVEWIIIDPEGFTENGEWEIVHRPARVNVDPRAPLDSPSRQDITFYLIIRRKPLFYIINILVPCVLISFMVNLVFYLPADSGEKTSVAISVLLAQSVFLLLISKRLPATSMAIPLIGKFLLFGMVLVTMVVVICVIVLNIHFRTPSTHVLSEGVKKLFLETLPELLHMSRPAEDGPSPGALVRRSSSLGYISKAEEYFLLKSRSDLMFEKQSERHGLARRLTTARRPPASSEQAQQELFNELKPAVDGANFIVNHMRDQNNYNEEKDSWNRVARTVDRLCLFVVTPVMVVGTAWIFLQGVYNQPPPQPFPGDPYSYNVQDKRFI
T2 sequence (P07510 23-517): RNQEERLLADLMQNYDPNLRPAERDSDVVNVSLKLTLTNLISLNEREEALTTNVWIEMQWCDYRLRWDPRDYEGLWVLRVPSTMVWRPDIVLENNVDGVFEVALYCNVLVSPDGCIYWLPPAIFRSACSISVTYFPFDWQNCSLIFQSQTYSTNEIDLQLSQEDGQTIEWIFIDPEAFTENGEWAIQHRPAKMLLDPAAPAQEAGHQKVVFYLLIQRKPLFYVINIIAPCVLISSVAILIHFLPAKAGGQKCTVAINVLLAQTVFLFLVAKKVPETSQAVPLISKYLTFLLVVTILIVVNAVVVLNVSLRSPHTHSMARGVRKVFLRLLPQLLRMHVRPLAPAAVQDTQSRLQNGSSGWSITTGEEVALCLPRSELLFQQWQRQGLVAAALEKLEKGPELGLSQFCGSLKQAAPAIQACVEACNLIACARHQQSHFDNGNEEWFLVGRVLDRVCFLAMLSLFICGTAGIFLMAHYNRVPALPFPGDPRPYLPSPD
T3 sequence (P09483 31-630): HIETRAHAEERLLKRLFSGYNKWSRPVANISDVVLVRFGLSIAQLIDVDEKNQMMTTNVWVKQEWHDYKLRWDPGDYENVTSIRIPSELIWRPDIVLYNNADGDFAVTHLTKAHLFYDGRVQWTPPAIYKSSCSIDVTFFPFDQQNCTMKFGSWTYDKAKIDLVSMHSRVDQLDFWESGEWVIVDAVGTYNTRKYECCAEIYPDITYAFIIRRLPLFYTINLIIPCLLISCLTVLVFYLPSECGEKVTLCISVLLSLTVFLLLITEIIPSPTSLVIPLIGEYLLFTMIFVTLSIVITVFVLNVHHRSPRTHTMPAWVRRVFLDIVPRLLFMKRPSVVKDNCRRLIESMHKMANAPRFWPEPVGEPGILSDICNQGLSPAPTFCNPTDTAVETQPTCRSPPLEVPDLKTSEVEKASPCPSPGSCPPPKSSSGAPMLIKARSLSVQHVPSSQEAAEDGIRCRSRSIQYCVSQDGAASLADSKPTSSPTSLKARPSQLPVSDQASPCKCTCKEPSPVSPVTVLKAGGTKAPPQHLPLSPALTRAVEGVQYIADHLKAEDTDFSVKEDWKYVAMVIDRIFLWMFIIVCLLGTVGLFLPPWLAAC
T3 sequence (P12390 25-500): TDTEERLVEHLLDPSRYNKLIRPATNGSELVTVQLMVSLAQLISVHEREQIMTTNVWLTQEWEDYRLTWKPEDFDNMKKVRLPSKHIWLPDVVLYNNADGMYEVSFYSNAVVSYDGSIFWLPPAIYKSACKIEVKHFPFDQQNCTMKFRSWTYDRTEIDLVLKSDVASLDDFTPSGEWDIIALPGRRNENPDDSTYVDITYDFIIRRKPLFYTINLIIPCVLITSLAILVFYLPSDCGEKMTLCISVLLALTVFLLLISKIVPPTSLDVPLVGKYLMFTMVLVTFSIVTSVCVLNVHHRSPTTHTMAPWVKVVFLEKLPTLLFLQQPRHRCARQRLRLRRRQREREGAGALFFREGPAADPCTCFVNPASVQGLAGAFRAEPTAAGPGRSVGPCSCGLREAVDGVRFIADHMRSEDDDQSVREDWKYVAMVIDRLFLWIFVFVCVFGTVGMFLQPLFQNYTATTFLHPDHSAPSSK

Row | Compound | EC50 [1, 6] [µM] | Ganglion Effect Ecmax [1, 7] | EC50 ([2]; 86Rb+ efflux, TE671/RD cells, read-out: Muscle Effect EC50) [µM] | Muscle Effect Ecmax [2] | Dopamine Release Ecmax [3, 7] | EC50 [3, 8] [µM] | logP [4] | EC50 [1] [µM] | EC50 [2] [µM] | EC50 ([3]; Rattus norvegicus) [µM] | Ganglion Effect Ecmax [1] | Dopamine Release Ecmax [3] | Ki [5] [µM] | amounts causing effects upon ganglia relative to those required to cause dopamine release ([1]; ganglia effects vs dopamine release) | amounts causing muscle effects relative to those required to cause dopamine release ([2]; muscle effects vs dopamine release)
1 | c1cncc(C2CC3CCN2CC3)c1 (racemic) [Sample No. 1, (+/−)-2-(3-pyridyl)-1-azabicyclo[2.2.2]octane] | 1.1 | 85 | 0.059 | 110 | 40 | 0.002 | 1.26 | – | – | – | – | – | – | – | –
2 | Brc1cncc(C2CC3CCN2CC3)c1 (racemic) [Sample No. 2, (+/−)-2-(5-bromo-3-pyridyl)-1-azabicyclo[2.2.2]octane] | – | 106 | – | 133 | 43 | – | 2.05 | 3 | 3 | 0.002 | – | – | – | – | –
3 | c1cncc([C@H]2C[C@@H]3CCN2C3)c1 (relative stereo) [Sample No. 3, exo 2-(3-pyridyl)-1-azabicyclo[2.2.1]heptane] | – | 100 | – | 130 | 130 | – | 0.94 | 0.15 | – | 0.006 | – | – | – | – | –
4 | c1cncc([C@@H]2C[C@@H]3CCN2C3)c1 (relative stereo) [Sample No. 4, endo-2-(3-pyridyl)-1-azabicyclo[2.2.1]heptane] | – | 100 | – | 130 | 114 | – | 0.94 | 0.15 | – | 0.033 | – | – | – | – | –
5 | CN1CCC[C@H]1c1cccnc1 [C-1, (S)-(−)-nicotine, reference compound] | – | – | – | – | – | – | – | – | – | – | 100 | 100 | – | – | –
6 | c1cncc(C2C3CCN2CC3)c1 (stereo not drawn) [Sample No. 5, 7-(3-pyridyl)-1-azabicyclo[2.2.1]heptane] | – | 120 | – | 130 | 93 | – | 0.93 | – | – | 0.004 | – | – | 0.007 | – | –
7 | Cl.Cl.Cl.Nc1cncc(C2CC3CCN2CC3)c1 (stereo not drawn) [Sample No. 6, 2-(5-amino-3-pyridyl)-1-azabicyclo[2.2.2]octane trihydrochloride] | 10 | 75 | – | 100 | 43 | 0.007 | 0.48 | – | – | – | – | – | 0.0026 | many times | many times
8 | CCOc1cncc(C2CC3CCN2CC3)c1.Cl.Cl (stereo not drawn) [Sample No. 7, 2-(5-ethoxy-3-pyridyl)-1-azabicyclo[2.2.2]octane dihydrochloride] | – | 86 | – | 137 | 40 | – | 1.82 | 10 | – | 0.005 | – | – | – | – | –
9 | CC(C)Oc1cncc(C2CC3CCN2CC3)c1.Cl.Cl (stereo not drawn) [Sample No. 8, 2-(5-isopropoxy-3-pyridyl)-1-azabicyclo[2.2.2]octane dihydrochloride] | – | 94 | – | – | – | – | 1.76 | – | – | – | – | – | – | – | –
